This note sets out measurements from patent US20110212999A1, “TRIAZOLE DERIVATIVES AND THEIR USE AS NICOTINIC ACETYLCHOLINE RECEPTOR MODULATORS” (NEUROSEARCH A/S, priority 2008, published 2011).

The structures appear in SMILES notation.

Data set [1] deals with T1, human nicotinic acetylcholine receptor subtype a4b2 (Homo sapiens, UniProt P17787+P43681).
T1 construct: expressed in transfected cells; host or cells: HEK-293
The experiment in a line: FLIPR nAChR a4b2 positive allosteric modulator activity (shift of nicotine concentration-response). The note with it: nicotine +/- test compound, HEK-293 cells stably expressing hα4β2. Type of data set: cell-based. As for the experimental part: Characterization of hα4β2 positive allosteric modulators using FLIPR
The modulator activity is determined as a fluorescence-based assay using a Fluorometric Imaging Plate Reader (FLIPR) as described below in more detail.
Full concentration-response curves of nicotine +/− test compound are generated and delta pEC50 values are calculated based on EC50 values for nicotine +/− test compound. EC50 values (Effective Concentration 50%) represent the concentration of the nicotine, at which the nicotine-induced response is 50% of the maximal nicotine-induced response.
Preferred compounds of the invention show an activity determined as delta pEC50 values above 1 in the presence of 10 μM of the test compound compared to nicotine alone.

T1 sequence (P43681 29-627 limits assumed): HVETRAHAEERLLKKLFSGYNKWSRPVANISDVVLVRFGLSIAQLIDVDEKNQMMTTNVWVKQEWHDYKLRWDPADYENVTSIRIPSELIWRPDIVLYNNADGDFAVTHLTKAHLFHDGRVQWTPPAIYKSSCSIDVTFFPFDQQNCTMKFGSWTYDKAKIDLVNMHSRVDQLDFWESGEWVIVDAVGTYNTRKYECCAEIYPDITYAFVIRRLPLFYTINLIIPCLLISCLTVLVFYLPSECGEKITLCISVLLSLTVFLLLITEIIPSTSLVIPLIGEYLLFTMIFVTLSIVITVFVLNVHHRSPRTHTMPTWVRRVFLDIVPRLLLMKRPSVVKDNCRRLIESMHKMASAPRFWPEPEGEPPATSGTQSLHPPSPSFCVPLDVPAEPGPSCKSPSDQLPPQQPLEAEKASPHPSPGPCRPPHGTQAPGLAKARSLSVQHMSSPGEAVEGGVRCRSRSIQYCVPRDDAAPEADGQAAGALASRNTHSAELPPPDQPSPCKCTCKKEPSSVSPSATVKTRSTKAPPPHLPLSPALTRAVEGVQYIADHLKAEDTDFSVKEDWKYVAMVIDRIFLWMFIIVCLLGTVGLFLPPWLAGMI
T1 sequence (P17787 26-502): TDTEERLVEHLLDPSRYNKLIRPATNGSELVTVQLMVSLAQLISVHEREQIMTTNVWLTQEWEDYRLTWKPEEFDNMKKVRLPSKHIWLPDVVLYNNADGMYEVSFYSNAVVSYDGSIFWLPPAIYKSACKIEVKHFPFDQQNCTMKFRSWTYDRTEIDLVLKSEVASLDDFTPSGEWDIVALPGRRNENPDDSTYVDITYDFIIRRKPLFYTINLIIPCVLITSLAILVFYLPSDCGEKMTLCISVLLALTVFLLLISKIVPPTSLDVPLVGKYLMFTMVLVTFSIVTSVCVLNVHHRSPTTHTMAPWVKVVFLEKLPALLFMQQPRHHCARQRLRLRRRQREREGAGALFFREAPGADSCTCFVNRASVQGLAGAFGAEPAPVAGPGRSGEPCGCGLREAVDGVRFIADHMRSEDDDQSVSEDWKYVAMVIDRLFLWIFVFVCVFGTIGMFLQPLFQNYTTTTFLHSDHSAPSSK

Consider `N#Cc1cccc(-n2cc(-c3cccnc3)nn2)c1` [Compound 1, 3-(4-Pyridin-3-yl-[1,2,3]triazol-1-yl)-benzonitrile], for which the Delta pEC50 in data set [1] was 1.6.
As a reminder, the melting point is the temperature of the solid-liquid transition. `c1cncc(-c2cn(-c3cccnc3)nn2)c1` [Compound 1B, 3-(1-Pyridin-3-yl-1H-[1,2,3]triazol-4-yl)-pyridine] came in with a melting point of 217 to 219 °C.
On the same count and under the same terms, in the case of `Fc1cccc(Cl)c1-c1cn(-c2cccnc2)nn1` [Compound 1E, 3-[4-(2-Chloro-6-fluoro-phenyl)-[1,2,3]triazol-1-yl]-pyridine] it was 94 to 95.2 °C; in that of `[C-]#[N+]c1cccc(-c2cn(-c3ccc(Cl)nc3)nn2)c1` [Compound 1G, 2-Chloro-5-[4-(3-isocyano-phenyl)-[1,2,3]triazol-1-yl]-pyridine], 202.2 to 203.6 °C.
Same read-out and setting: as for `N#Cc1cccc(-n2cc(-c3ccc(Cl)nc3)nn2)c1` [Compound 1H, 3-[4-(6-Chloro-pyridin-3-yl)-[1,2,3]triazol-1-yl]-benzonitrile], the figure is 219.3 to 220 °C; as for `Fc1cccc(Cl)c1-n1cc(-c2cccnc2)nn1` [Compound 1I, 3-[1-(2-Chloro-6-fluoro-phenyl)-1H-[1,2,3]triazol-4-yl]-pyridine], 94.5 to 97.1 °C; as for `N#Cc1cccc(-n2cc(-c3cccnc3Cl)nn2)c1` [Compound 1J, 3-[4-(2-Chloro-pyridin-3-yl)-[1,2,3]triazol-1-yl]-benzonitrile], 181 to 182.6 °C.
As to `[C-]#[N+]c1cccc(-c2cn(-c3cccnc3Cl)nn2)c1` [Compound 1K, 2-Chloro-3-[4-(3-isocyano-phenyl)-[1,2,3]triazol-1-yl]-pyridine], the melting point lay within 184 to 185 °C.
For the molecule `Fc1cncc(-c2cn(-c3cccnc3)nn2)c1` [Compound 1L, 3-Fluoro-5-(1-pyridin-3-yl-1H-[1,2,3]triazol-4-yl)-pyridine], the melting point was in the range of 190.2 to 191.6 °C.
For the molecule `Fc1ccc(-c2cn(-c3cccnc3)nn2)cn1` [Compound 1M, 2-Fluoro-5-(1-pyridin-3-yl-1H-[1,2,3]triazol-4-yl)-pyridine], the melting point lay in the range of 187 to 188.7 °C.
Same read-out and setting: as for `COc1ccc(-c2cn(-c3cccnc3)nn2)cn1` [Compound 1N, 2-Methoxy-5-(1-pyridin-3-yl-1H-[1,2,3]triazol-4-yl)-pyridine], the figure is 205.6 to 206.9 °C; as for `Fc1cncc(-n2cc(-c3cccnc3)nn2)c1` [Compound 1O, 3-Fluoro-5-(4-pyridin-3-yl-[1,2,3]triazol-1-yl)-pyridine], 190.6 to 191.7 °C; as for `Fc1ccc(-n2cc(-c3cccnc3)nn2)cn1` [Compound 1P, 2-Fluoro-5-(4-pyridin-3-yl-[1,2,3]triazol-1-yl)-pyridine], 221.3 to 222.6 °C.
On the same count and under the same terms, as for `Brc1cncc(-n2cc(-c3cccnc3)nn2)c1` [Compound 1Q, 3-Bromo-5-(4-pyridin-3-yl-[1,2,3]triazol-1-yl)-pyridine], the figure is 226.2 to 227.8 °C; as for `Fc1cccc(-n2cc(-c3cccnc3)nn2)c1` [Compound 1R, 3-[1-(3-Fluoro-phenyl)-1H-[1,2,3]triazol-4-yl]-pyridine], 156.3 to 158.2 °C.
Consider `Fc1ccc(-n2cc(-c3cccnc3)nn2)cc1` [Compound 1S, 3-[1-(4-Fluoro-phenyl)-1H-[1,2,3]triazol-4-yl]-pyridine], for which the melting point lay in the range of 179.9 to 190.9 °C.
On to `N#Cc1ccc(-n2cc(-c3cccnc3)nn2)o1` [Compound 2, 5-(4-pyridin-3-yl-[1,2,3]triazol-1-yl)-furan-2-carbonitrile], for which the Delta pEC50 in data set [1] stood at 1.2.
